Data taken from patent US7205394B2, “Clathrate of azithromycin hydrate with 1,2-propyleneglycol, method for the manufacture thereof and pharmaceutical composition comprising same” (Hanmi Pharm. Co., Ltd., priority 2001, dated 2007).
Like-named read-outs stand apart in the source and are kept apart here. Blank lines part the entries; values can stand above or below the compound they belong to.

Key:
[1] = Hygroscopic properties: exposure to relative humidity, water content by Karl Fischer method; format: physicochemical; conditions: for Found-Calculated (Difference, %) / Range of Difference (%) / Water content, relative humidity 25% / Water content, relative humidity 50% / Water content, relative humidity 75% / Water content, relative humidity 100%: 7 days; for Found-Calculated (Difference, %) / Range of Difference (%): relative humidity 25-100%; for Water content at onset: before exposure, 7-day series; for Water content at onset / Water content, relative humidity 25% / Water content, relative humidity 50% / Water content, relative humidity 75% / Water content, relative humidity 100%: Karl Fischer; for Calculated water content (%): theoretical, for (1) based on m = 1.5 and n = 0.30 in formula (I); for Found-Calculated (Difference, %) (number in parenthesis) / Range of Difference (%) (number in parenthesis): after 3 days at the corresponding relative humidity; for Water content at onset (number in parenthesis): parenthesis = 3-day series; for Water content, relative humidity 50% (number in parenthesis) / Water content, relative humidity 75% (number in parenthesis) / Water content, relative humidity 100% (number in parenthesis) / Water content, relative humidity 25% (33%) (number in parenthesis): after 3 days; for Water content, relative humidity 25% (33%) (number in parenthesis): relative humidity (33%)
Procedure: Also, the hygroscopic properties of each of the compound obtained in Example 1 (1), azithromycin dihydrate (2), monohydrate (3), and anhydride (4) were determined by exposing each sample to a relative humidity of each 25%, 50%, […] thereof by the Karl Fischer method.

[2] = prior art forms, background section, cited from earlier work
rat = conditions: oral administration in rat; cited from earlier work

Found-Calculated (Difference, %) [1]: +1.11~+7.00%
Range of Difference (%) [1]: 7.00%
Water content at onset [1]: 0.22%
Water content, relative humidity 25% [1]: 1.11%
Water content, relative humidity 50% [1]: 2.85%
Water content, relative humidity 75% [1]: 4.33%
Water content, relative humidity 100% [1]: 7.00%
Calculated water content (%) [1]: 0.00%
SMILES: CC[C@H]1OC(=O)[C@H](C)[C@@H](O[C@H]2C[C@@](C)(OC)[C@@H](O)[C@H](C)O2)[C@H](C)[C@@H](O[C@@H]2O[C@H](C)C[C@H](N(C)C)[C@H]2O)C(C)(O)C[C@H](C)CN(C)[C@H](C)[C@@H](O)[C@]1(C)O (some centres unmarked) [(4), 9-deoxo-9a-aza-9a-methyl-9a-homoerythromycin A]
Hygroscopic property (in words) [2]: highly hygroscopic

SMILES: CC(O)CO (centres unmarked) [1,2-propyleneglycol]
LD50 (rat): 25 mL/kg

Found-Calculated (Difference, %) ([1]; monohydrate): +1~+3.94%
Range of Difference (%) ([1]; monohydrate): 3.94%
Found-Calculated (Difference, %) (number in parenthesis) ([1]; monohydrate): (−0.05~+4.84) %
Range of Difference (%) (number in parenthesis) ([1]; monohydrate): 4.9%
Water content at onset ([1]; monohydrate): 2.30%
Water content at onset (number in parenthesis) ([1]; monohydrate): 3.2%
Water content, relative humidity 25% ([1]; monohydrate): 3.35%
Water content, relative humidity 50% ([1]; monohydrate): 5.13%
Water content, relative humidity 50% (number in parenthesis) ([1]; monohydrate): 5.6%
Water content, relative humidity 75% ([1]; monohydrate): 5.41%
Water content, relative humidity 75% (number in parenthesis) ([1]; monohydrate): 6.6%
Water content, relative humidity 100% ([1]; monohydrate): 6.29%
Water content, relative humidity 100% (number in parenthesis) ([1]; monohydrate): 7.2%
Water content, relative humidity 25% (33%) (number in parenthesis) ([1]; monohydrate): 2.3%
Calculated water content (%) ([1]; monohydrate): 2.35%
SMILES: CC[C@H]1OC(=O)[C@H](C)[C@@H](O[C@H]2C[C@@](C)(OC)[C@@H](O)[C@H](C)O2)[C@H](C)[C@@H](O[C@@H]2O[C@H](C)C[C@H](N(C)C)[C@H]2O)[C@](C)(O)C[C@@H](C)CN(C)[C@H](C)[C@@H](O)[C@]1(C)O [(3), azithromycin monohydrate]

Found-Calculated (Difference, %) ([1]; dihydrate): −0.4~+1.51%
Range of Difference (%) ([1]; dihydrate): 1.91%
Found-Calculated (Difference, %) (number in parenthesis) ([1]; dihydrate): (−2.1~+0.6) %
Range of Difference (%) (number in parenthesis) ([1]; dihydrate): 2.7%
Water content at onset ([1]; dihydrate): 4.58%
Water content at onset (number in parenthesis) ([1]; dihydrate): 4.1%
Water content, relative humidity 25% ([1]; dihydrate): 4.20%
Water content, relative humidity 50% ([1]; dihydrate): 4.25%
Water content, relative humidity 50% (number in parenthesis) ([1]; dihydrate): 4.6%
Water content, relative humidity 75% ([1]; dihydrate): 5.10%
Water content, relative humidity 75% (number in parenthesis) ([1]; dihydrate): 4.6%
Water content, relative humidity 100% ([1]; dihydrate): 6.11%
Water content, relative humidity 100% (number in parenthesis) ([1]; dihydrate): 5.2%
Water content, relative humidity 25% (33%) (number in parenthesis) ([1]; dihydrate): 2.5%
Calculated water content (%) ([1]; dihydrate): 4.60%
SMILES: CC[C@H]1OC(=O)[C@H](C)[C@@H](O[C@H]2C[C@@](C)(OC)[C@@H](O)[C@H](C)O2)[C@H](C)[C@@H](O[C@@H]2O[C@H](C)C[C@H](N(C)C)[C@H]2O)[C@](C)(O)C[C@@H](C)CN(C)[C@H](C)[C@@H](O)[C@]1(C)O [(2), azithromycin dihydrate]
Hygroscopic property (in words) ([2]; dihydrate): less hydroscopic than the monohydrate
